Data as given in patent US5496843A, “Tricyclic indole-2-carboxylic acid derivatives” (Sumitomo Pharmaceuticals Company, Limited, priority 1993, dated 1996).

What was measured:
[1] = tested on: NMDA-induced tonic seizures; assay: NMDA-induced seizure model; format: in vivo; details: 30 mg/kg, i.p., 30 min before NMDA (5 nmol) i.c.v.; mice
Protocol: The compounds of the present invention attenuated strongly NMDA-induced seizure under systemic administration in the following in vivo model. NMDA-induced seizure model Thirty min later following intraperitoneal administration of the test compound (0.3~30 mg/kg) into each of ten mice tested, NMDA (5 nmol) was administered intracerebroventricularly (i.c.v.).

[2] = tested on: strychnine-insensitive glycine modulatory site of NMDA (N-methyl D-aspartate) receptors; assay: [3H] DCKA binding studies; details: 10 ng/mL test compound; 10 nM [3H] DCKA; rat brain synaptic membrane preparation
Protocol: (§1) The activities of the compounds were measured by [^3 H] DCKA and [^3 H] glycine binding inhibition studies as illustrated below. [^3 H] glycine binding studies
[^3 H] DCKA binding studies
A crude rat brain synaptic membrane preparation was washed three times by centrifugation at 50,000×g for 30 min with 50 mM tris acetate (pH 7.4). The pellets obtained were suspended in 0.23M sucrose solution and stored at -80° C. For binding studies, the frozen suspension was thawed, treated with 0.08% triton X-100 at 2° C. for 10 min, and washed twice by the centrifugation as mentioned above. The synaptic membrane thus prepared (ca. 100 μg of protein) was incubated with 10 nM [^3 H] (DCKA) (603 GBq/mmol) and the test compound (10 ng/mL~0.1ng/mL) at 2° C. for 10 min in 50 mM tris acetate (pH 7.4). The incubation was terminated by suction filtration using Whatman GF/B glass filter. The radioactivity bound to the membrane on the filter was measured by scintillation counting. Non-specific binding was calculated by the radioactivity measured under the incubations in the presence of 0.1 mM glycine. […] DCKA binding.

[3] = tested on: strychnine-insensitive glycine modulatory site of NMDA (N-methyl D-aspartate) receptors; assay: [3H] glycine binding studies; details: 10 ng/mL test compound; 10 nM [3H] glycine; rat brain synaptic membrane preparation
Protocol: as §1
A crude rat brain synaptic membrane preparation was washed three times by centrifugation at 50,000×g for 30 min with 50 mM tris acetate (pH 7.4). The pellets obtained were suspended in 0.23M sucrose solution and stored at -80° C. For binding studies, the frozen suspension was thawed, treated with 0.08% triton X-100 at 2° C. for 10 min, and washed twice by the centrifugation as mentioned above. The synaptic membrane thus prepared (ca. 150~200 μg of protein) was incubated with 10 nM [^3 H] glycine (1.11 TBq/mmol) and the test compound (10 ng/mL~0.1 ng/mL) at 2° C. for 10 min in 50 mM tris acetate (pH 7.4). The incubation was terminated by suction filtration using Whatman GF/B glass filter. The radioactivity bound to the membrane on the filter was measured by scintillation counting. Non-specific binding was calculated by the radioactivity measured under the incubations in the presence of 0.1 mM D-serine. The [3H] glycine binding was not inhibited by addition of 0.1 mM strychnine.

inhibition of the [3H] DCKA binding [2]: 94% | inhibition of the [3H] glycine binding [3]: 69%
SMILES: Cl.NCc1ccc(NC(=O)CC2CCc3cc(Cl)cc4[nH]c(C(=O)O)c2c34)c(CC(=O)O)c1 (stereo not drawn) [Example 5, 7-Chloro-3-[p-aminomethyl-o-(carboxymethyl)phenylcarbamoylmethyl]-1,3,4,5-tetrahydrobenz[cd]indole-2-carboxylic acid hydrochloride]
protection from tonic seizures [1]: 90%
